Data from PMC3344892, “NAD-Independent L-Lactate Dehydrogenase Is Required for L-Lactate Utilization in Pseudomonas stutzeri SDM” (PLoS ONE, 2012).

Experiments:
[1] = biological target: T1, L-iLDH (NAD-independent L-lactate dehydrogenase) from P. stutzeri SDM (Stutzerimonas stutzeri, UniProt I1SLB1); assay: HPLC of flavin released by boiling; UV-visible spectrum; format: binding; settings: native enzyme purified from membrane; recombinant enzyme similar; one FMN per subunit
T1 construct: gene lldD; full-length lldD in pETDuet-1 (HindIII/XhoI), expressed in E. coli C43(DE3), HisTrap purified (tag not described); also purified natively from membrane with Triton X-100; one FMN per subunit
T1 sequence (I1SLB1 1-391): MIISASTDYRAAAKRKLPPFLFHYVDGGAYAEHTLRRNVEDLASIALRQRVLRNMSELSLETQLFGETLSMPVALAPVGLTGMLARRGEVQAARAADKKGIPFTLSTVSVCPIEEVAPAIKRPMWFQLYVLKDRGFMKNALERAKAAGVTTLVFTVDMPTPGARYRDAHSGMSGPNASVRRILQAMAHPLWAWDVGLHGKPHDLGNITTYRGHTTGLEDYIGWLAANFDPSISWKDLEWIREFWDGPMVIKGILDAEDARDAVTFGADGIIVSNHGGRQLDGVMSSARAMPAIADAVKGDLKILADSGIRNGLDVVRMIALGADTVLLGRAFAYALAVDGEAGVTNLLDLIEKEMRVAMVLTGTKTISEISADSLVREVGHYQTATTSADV

[2] = biological target: T1, L-iLDH (NAD-independent L-lactate dehydrogenase) from P. stutzeri SDM; assay: MTT reduction at […] nm, double-reciprocal plots; format: biochemical
purified protein [3] = substrate: C[C@H](O)C(=O)O; assay: purified protein; format: biochemical, Stutzerimonas stutzeri; settings: apparent, fixed 0.2 mM MTT as electron acceptor, 50 mM Tris-HCl pH 7.5, 30°C
purified protein [4] = substrate: CC[C@H](O)C(=O)O; assay: purified protein; format: biochemical, Stutzerimonas stutzeri; settings: apparent, fixed 0.2 mM MTT as electron acceptor, 50 mM Tris-HCl pH 7.5, 30°C

Cc1cc2nc3c(=O)[nH]c(=O)nc-3n(C[C@H](O)[C@H](O)[C@H](O)COP(=O)(O)O)c2cc1C [FMN]
HPLC of flavin released by boiling; UV-visible spectrum [1]: the native enzyme contains one FMN per subunit

O=C(O)C(=O)O [oxalate]
Ki [2]: 1.9 ± 0.1 mM

NC(=O)C(=O)O [oxamate]
Ki [2]: 29 ± 1.7 mM

B1: L-iLDH (NAD-independent L-lactate dehydrogenase) from P. stutzeri SDM (Stutzerimonas stutzeri) (protein)
chain: MIISASTDYRAAAKRKLPPFLFHYVDGGAYAEHTLRRNVEDLASIALRQRVLRNMSELSLETQLFGETLSMPVALAPVGLTGMLARRGEVQAARAADKKGIPFTLSTVSVCPIEEVAPAIKRPMWFQLYVLKDRGFMKNALERAKAAGVTTLVFTVDMPTPGARYRDAHSGMSGPNASVRRILQAMAHPLWAWDVGLHGKPHDLGNITTYRGHTTGLEDYIGWLAANFDPSISWKDLEWIREFWDGPMVIKGILDAEDARDAVTFGADGIIVSNHGGRQLDGVMSSARAMPAIADAVKGDLKILADSGIRNGLDVVRMIALGADTVLLGRAFAYALAVDGEAGVTNLLDLIEKEMRVAMVLTGTKTISEISADSLVREVGHYQTATTSADV
notes: full-length lldD in pETDuet-1 (HindIII/XhoI), expressed in E. coli C43(DE3), HisTrap purified (tag not described); also purified natively from membrane with Triton X-100; one FMN per subunit
Km (purified protein [3]): 29 ± 0.65 µM
Km (purified protein [4]): 99 ± 3.9 µM
